# Patent US9440948B2, “Nicotine compounds and analogs thereof, synthetic methods of making compounds, and methods of use” (priority 2010, dated 2016)
# Entries after “also recorded” stand apart in the source; their conditions may differ. Where two headings read alike, the source gives them in different places.
# Key:
# [1] = system: rat brain nAChRs that bind nicotine with high affinity; settings: reference 7; cited from earlier work
# [2] = molecular target: T1, α4β2 receptors (Homo sapiens, UniProt P17787+P43681); format: cell-based; settings: for agonist activity/potency on α4β2 receptors (in words): oocytes expressing α4β2 receptors
# T1 construct: expressed in transfected cells; host or cells: Xenopus laevis oocytes (mRNA injection, alpha4:beta2 1:1)
# T1 sequence (P43681 29-627 limits assumed): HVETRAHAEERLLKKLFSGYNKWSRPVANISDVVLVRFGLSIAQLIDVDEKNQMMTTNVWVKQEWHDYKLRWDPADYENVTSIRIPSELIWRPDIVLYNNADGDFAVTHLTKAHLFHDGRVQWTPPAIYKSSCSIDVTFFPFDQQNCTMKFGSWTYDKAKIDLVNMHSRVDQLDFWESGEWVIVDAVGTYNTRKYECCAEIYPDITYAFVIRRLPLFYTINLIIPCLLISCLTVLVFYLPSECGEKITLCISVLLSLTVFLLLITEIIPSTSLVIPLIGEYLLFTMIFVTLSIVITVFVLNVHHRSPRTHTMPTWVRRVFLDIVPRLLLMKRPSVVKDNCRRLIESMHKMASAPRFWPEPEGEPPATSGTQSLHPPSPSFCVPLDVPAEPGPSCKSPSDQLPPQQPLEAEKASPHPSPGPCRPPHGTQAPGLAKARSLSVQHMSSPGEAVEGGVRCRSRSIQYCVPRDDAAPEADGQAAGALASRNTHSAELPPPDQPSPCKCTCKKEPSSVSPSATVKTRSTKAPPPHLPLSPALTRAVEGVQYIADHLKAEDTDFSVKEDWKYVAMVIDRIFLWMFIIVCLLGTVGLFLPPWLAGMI
# T1 sequence (P17787 26-502): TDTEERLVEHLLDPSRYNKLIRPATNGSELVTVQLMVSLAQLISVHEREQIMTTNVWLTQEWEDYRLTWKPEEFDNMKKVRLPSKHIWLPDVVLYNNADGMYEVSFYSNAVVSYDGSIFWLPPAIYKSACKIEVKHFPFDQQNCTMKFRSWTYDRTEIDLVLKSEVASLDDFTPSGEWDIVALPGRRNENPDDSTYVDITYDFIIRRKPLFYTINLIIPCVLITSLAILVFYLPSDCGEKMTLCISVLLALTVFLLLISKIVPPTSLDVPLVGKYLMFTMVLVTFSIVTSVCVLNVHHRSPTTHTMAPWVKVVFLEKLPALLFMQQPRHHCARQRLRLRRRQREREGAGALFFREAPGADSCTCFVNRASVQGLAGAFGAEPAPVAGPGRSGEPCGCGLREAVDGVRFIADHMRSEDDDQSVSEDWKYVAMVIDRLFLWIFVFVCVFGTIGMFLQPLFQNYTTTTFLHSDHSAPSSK
# From the text: (§1) ACh control applications alternated with test compound applications.
# [3] = molecular target: T2, α7 receptors (Homo sapiens, UniProt P36544); format: cell-based; settings: oocytes expressing α7 receptors
# T2 construct: expressed in transfected cells; host or cells: Xenopus laevis oocytes (mRNA injection)
# T2 sequence (P36544 23-502): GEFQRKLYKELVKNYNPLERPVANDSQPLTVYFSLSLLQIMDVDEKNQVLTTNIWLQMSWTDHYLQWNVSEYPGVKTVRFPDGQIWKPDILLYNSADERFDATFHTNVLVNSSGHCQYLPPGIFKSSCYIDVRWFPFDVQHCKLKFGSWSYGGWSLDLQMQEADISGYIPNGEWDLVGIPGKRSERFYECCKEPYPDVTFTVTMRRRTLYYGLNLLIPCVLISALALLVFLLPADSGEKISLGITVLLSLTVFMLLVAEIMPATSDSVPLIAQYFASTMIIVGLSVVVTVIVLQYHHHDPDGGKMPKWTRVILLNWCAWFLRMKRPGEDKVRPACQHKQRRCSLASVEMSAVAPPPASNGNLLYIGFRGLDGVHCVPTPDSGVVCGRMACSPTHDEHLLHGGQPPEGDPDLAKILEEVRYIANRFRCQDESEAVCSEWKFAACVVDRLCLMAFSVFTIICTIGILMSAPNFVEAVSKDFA
# From the text: as §1
# [4] = system: α6/α3 chimera/β2 receptors; settings: oocytes, FIG. 2.13
# Procedure: Mature female Xenopus laevis were anesthetized by immersion in a 1.5 g/L solution of aminobenzoic acid ethyl ester (MP Biomedicals, LLC, Solon, Ohio) for 30 min. The excised ovary bag was placed into calcium-free Barth's saline (88 mM NaCl, 1 mM KCl, 2.38 mM NaHCO3, 0.82 mM MgSO4, 15 mM HEPES, 0.012 mg/ml tetracycline hydrochloride, pH 7.3+−0.1), opened with forceps and washed three times with Barth's saline. Then 60 ml collagenase solution (76 mg Sigma type XX collagenase dissolved in Ca^2+-free Barth saline) was added and the oocyte containing mass was shaken for 2 hours at 5° C. After washing three times with Ca^2+-free Barth's and then three times with Barth's solution containing calcium, the oocytes were evaluated under a stereo microscope. Healthy stage 5 oocytes were transferred into new dishes and incubated in 17° C. for overnight. Oocytes were injected with either 50 nl of alpha7 mRNA solution (20 ng) or 50 nl of a mixture of alpha4 and beta2 (1:1, 10 ng) mRNA, using a Drummond Nanoject II Auto-Injector. The cells were cultured in Barth's saline at 17° C. for 5-16 days, with daily changes in the saline. […] Membrane currents were recorded with an AxoClamp-2 (Axon Instruments, Union City, Calif.), filtered at 10 kHz and sampled at 5 kHz. […]
# [5] = system: alpha7 receptors relative to alpha4beta2 nAChRs; settings: Martin et al., 2004; cited from earlier work
# [6] = listed as 3-(((2S,5S)-1,5-Dimethylpyrrolidine-2-yl)methoxy)-pyridine
smiles,measurement,setting,value
"CCC1(c2cccnc2)CCCN1C (racemic) [2′-ethyl-nicotine, (±)-2′-Ethylnicotine]",displacement of radiolabeled methylcarbamylcholine binding (in words),[1],displace the binding
"CN1CCCC1(C)c1cccnc1 (racemic) [2′ methyl-nicotine, (±)-2′-Methylnicotine]",agonist activity/potency on α4β2 receptors (in words),[2],excellent agonist activity
same,agonist activity/potency on α7 receptors (in words),[3],excellent agonist activity
same,increase in potency at α7 nAChR relative to nicotine,[3]; FIG. 2.10,6.7 fold
same,displacement of radiolabeled methylcarbamylcholine binding (in words),[1],displace the binding
"C[C@H]1C[C@H](c2cccnc2)N1C (relative stereo) [Trans-3-(1,4-Dimethylazetidin-2-yl)pyridine]",potency of trans- versus cis-diastereomers on α4β2 receptors (in words),"[2]; oocytes, FIG. 3.4",significantly more potent than the cis-diastereomers
C[C@H]1CC[C@@H](c2cccnc2)N1C [5′ Cis-Me-Nic],response of α6/α3 chimera/β2 receptors (in words),[4],essentially identical manner
same,agonist activity/potency on α4β2 receptors (in words),[2],inactive
"CN1CCC[C@H]1c1cccnc1 [nicotine, (S)-nicotine]",alpha7 receptors less sensitive to nicotine relative to alpha4beta2 nAChRs,[5],at least 50 ×
"C[C@H]1CC[C@@H](COc2cccnc2)N1C [3-(((2S,5S)-1,5-Dimethylpyrrolidin-2-yl)methoxy)pyridine]",agonist activity/potency on α4β2 receptors (in words),[2],essentially no agonistic activity
same,agonist activity/potency on α4β2 receptors (in words),[2]; [6],low activity
same,agonist activity/potency on α7 receptors (in words),[3]; [6],high potency; also recorded: low activity
CN1CCC1c1cccnc1 (stereo not drawn) [trans-3-(1-methylazetidin-2-yl)pyridine],agonist activity/potency on α4β2 receptors (in words),[2],more potent strong agonist
same,agonist activity/potency on α7 receptors (in words),[3],more potent strong agonist
C[C@@H]1CC[C@@H](c2cccnc2)N1C [5′ Trans-Me-Nic],response of α6/α3 chimera/β2 receptors (in words),[4],essentially identical manner
same,agonist activity/potency on α4β2 receptors (in words),[2],inactive
"C[C@@H]1CC[C@@H](COc2cccnc2)N1C [3-(((2S,5R)-1,5-Dimethylpyrrolidin-2-yl)methoxy)pyridine]",agonist activity/potency on α4β2 receptors (in words),[2],essentially no agonistic activity
